{
  "source": "paper PMC7026418",
  "about": "“The kinase polypharmacology landscape of clinical PARP inhibitors” (Scientific Reports, 2020)",
  "experiment_in_all_cases": "biochemical",
  "design_in_all_cases": "DiscoveRx KINOMEscan active site-directed competition binding; percent of control kinase bound to immobilised ligand",
  "key": {"DMPK": {"biological_target": "T1, DMPK (Homo sapiens, UniProt Q09013)", "T1 sequence (Q09013 1-629)": "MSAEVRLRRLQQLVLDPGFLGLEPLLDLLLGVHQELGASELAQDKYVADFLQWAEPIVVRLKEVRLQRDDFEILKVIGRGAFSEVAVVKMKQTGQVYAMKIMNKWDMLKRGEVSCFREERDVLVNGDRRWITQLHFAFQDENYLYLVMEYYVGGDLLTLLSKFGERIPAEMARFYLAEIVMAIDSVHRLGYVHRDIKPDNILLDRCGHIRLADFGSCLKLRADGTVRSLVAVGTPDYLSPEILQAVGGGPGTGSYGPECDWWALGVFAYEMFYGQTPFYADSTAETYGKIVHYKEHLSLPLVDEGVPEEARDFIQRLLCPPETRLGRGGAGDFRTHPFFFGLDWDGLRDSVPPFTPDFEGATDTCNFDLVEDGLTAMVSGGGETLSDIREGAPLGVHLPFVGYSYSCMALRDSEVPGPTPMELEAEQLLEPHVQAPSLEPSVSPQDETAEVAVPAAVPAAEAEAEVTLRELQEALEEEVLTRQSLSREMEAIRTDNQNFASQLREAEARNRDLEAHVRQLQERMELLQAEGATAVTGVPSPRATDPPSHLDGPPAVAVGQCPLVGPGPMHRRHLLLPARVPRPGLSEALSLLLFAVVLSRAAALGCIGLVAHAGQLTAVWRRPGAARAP"}, "PIM1": {"biological_target": "PIM1 (Homo sapiens, UniProt P11309)", "sequence (P11309 whole entry)": "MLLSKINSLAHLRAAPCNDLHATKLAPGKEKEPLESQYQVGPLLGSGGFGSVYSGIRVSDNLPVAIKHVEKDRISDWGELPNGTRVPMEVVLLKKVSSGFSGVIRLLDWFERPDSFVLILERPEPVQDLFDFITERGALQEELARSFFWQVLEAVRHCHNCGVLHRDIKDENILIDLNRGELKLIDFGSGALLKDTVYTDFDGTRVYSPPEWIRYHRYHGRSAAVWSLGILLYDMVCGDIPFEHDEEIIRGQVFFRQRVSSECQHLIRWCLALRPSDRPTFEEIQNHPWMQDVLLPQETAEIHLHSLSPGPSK"}, "TNNI3K": {"biological_target": "T2, TNNI3K (Homo sapiens, UniProt Q59H18)", "T2 sequence (Q59H18 1-835)": "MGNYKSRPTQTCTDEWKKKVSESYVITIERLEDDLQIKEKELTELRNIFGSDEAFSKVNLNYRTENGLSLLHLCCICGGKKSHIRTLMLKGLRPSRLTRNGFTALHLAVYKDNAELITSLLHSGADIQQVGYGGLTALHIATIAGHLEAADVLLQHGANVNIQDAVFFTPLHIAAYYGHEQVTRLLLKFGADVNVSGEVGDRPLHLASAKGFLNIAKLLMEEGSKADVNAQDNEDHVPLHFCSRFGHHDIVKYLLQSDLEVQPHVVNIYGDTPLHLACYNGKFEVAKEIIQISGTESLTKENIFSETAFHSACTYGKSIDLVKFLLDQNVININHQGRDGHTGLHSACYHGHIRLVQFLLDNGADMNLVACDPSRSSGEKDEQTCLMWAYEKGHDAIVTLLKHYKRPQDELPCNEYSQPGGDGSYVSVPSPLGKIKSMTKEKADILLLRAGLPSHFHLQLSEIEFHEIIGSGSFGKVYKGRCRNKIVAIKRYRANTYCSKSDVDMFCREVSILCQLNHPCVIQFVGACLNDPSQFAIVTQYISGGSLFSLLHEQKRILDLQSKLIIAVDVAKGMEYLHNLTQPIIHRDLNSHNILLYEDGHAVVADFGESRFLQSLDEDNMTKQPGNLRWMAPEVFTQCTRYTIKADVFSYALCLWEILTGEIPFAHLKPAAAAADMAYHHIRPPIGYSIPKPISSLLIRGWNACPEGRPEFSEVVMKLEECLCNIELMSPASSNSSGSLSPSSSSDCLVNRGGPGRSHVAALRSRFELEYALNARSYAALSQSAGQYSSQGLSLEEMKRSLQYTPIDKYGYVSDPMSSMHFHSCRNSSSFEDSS"}, "PHKG2": {"biological_target": "T3, PHKG2 (Homo sapiens, UniProt P15735)", "T3 sequence (P15735 1-406)": "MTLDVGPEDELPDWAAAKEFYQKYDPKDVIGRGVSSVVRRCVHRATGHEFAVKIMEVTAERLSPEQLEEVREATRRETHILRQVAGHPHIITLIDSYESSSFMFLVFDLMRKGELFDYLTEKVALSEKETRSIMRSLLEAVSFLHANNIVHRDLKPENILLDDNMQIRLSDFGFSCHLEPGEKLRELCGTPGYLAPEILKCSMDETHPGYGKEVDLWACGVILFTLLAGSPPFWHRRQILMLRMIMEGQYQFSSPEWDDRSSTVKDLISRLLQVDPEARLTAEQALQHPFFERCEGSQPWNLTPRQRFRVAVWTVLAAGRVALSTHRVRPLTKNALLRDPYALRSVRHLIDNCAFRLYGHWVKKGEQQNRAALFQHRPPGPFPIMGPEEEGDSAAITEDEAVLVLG"}, "PRKCD": {"biological_target": "PRKCD (Homo sapiens, UniProt Q05655)", "sequence (Q05655 whole entry)": "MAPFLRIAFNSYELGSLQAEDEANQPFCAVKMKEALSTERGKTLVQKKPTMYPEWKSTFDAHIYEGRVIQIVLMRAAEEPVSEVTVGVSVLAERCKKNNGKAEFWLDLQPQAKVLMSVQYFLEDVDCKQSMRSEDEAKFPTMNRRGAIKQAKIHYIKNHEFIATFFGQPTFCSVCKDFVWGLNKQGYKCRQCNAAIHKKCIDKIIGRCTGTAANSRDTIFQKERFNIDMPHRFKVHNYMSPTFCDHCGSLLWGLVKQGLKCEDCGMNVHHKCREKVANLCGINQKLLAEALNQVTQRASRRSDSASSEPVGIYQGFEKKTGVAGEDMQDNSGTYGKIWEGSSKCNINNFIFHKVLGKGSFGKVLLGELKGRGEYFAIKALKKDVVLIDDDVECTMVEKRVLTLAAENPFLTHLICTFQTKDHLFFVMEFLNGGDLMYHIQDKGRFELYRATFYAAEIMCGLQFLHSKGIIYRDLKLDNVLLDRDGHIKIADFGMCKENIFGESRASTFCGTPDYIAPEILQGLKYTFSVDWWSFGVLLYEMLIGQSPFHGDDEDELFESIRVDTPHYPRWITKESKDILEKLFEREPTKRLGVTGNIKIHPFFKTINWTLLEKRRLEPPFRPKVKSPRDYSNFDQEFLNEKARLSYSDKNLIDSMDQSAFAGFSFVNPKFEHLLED"}, "CAMK2A": {"biological_target": "CAMK2A (Homo sapiens, UniProt Q9UQM7)", "sequence (Q9UQM7 whole entry)": "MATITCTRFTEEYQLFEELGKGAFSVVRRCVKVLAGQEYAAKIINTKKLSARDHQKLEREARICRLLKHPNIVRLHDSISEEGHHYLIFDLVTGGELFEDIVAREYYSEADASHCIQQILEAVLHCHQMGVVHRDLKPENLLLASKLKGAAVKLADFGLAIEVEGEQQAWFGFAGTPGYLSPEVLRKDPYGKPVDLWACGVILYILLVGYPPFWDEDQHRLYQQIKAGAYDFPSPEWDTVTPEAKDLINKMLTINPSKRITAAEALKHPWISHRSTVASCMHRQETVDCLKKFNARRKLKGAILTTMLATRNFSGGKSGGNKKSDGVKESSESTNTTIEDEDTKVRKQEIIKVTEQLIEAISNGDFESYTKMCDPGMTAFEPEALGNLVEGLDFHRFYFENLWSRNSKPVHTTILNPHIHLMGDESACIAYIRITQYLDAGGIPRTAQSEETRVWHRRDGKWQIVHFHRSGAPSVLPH"}, "[1]": {"details": "read-out: Talazoparib (BMN 673) / %Ctrl @ 10000nM"}, "[2]": {"details": "read-out: Olaparib / %Ctrl @ 10000nM"}, "[3]": {"details": "read-out: Niraparib (MK-4827) / %Ctrl @ 10000nM"}, "[4]": {"details": "read-out: Rucaparib / %Ctrl @ 10000nM, binding competition, % of control"}},
  "note": "Like-named read-outs stand apart in the source and are kept apart here.",
  "data": [
    {"smiles": "Cn1ncnc1[C@H]1c2n[nH]c(=O)c3cc(F)cc(c23)N[C@@H]1c1ccc(F)cc1", "note": "[Talazoparib]", "values": [
      {"measurement": "percent of control binding at 10 µM", "setting": "DMPK; [1]", "value": 83, "unit": "%"},
      {"measurement": "percent of control binding at 10 µM", "setting": "PIM1; [1]", "value": 95, "unit": "%"},
      {"measurement": "percent of control binding at 10 µM", "setting": "TNNI3K; [1]", "value": 100, "unit": "%"},
      {"measurement": "percent of control binding at 10 µM", "setting": "PHKG2; [1]", "value": 97, "unit": "%"},
      {"measurement": "percent of control binding at 10 µM", "setting": "PRKCD; [1]", "value": 86, "unit": "%"},
      {"measurement": "percent of control binding at 10 µM", "setting": "CAMK2A; [1]", "value": 86, "unit": "%"}
    ]},
    {"smiles": "O=C(c1cc(Cc2n[nH]c(=O)c3ccccc23)ccc1F)N1CCN(C(=O)C2CC2)CC1", "note": "[Olaparib]", "values": [
      {"measurement": "percent of control binding at 10 µM", "setting": "DMPK; [2]", "value": 98, "unit": "%"},
      {"measurement": "percent of control binding at 10 µM", "setting": "PIM1; [2]", "value": 96, "unit": "%"},
      {"measurement": "percent of control binding at 10 µM", "setting": "TNNI3K; [2]", "value": 84, "unit": "%"},
      {"measurement": "percent of control binding at 10 µM", "setting": "PHKG2; [2]", "value": 100, "unit": "%"},
      {"measurement": "percent of control binding at 10 µM", "setting": "PRKCD; [2]", "value": 95, "unit": "%"},
      {"measurement": "percent of control binding at 10 µM", "setting": "CAMK2A; [2]", "value": 96, "unit": "%"}
    ]},
    {"smiles": "NC(=O)c1cccc2cn(-c3ccc([C@@H]4CCCNC4)cc3)nc12", "note": "[Niraparib]", "values": [
      {"measurement": "percent of control binding at 10 µM", "setting": "DMPK; [3]", "value": 90, "unit": "%"},
      {"measurement": "percent of control binding at 10 µM", "setting": "PIM1; [3]", "value": 18, "unit": "%"},
      {"measurement": "percent of control binding at 10 µM", "setting": "TNNI3K; [3]", "value": 95, "unit": "%"},
      {"measurement": "percent of control binding at 10 µM", "setting": "PHKG2; [3]", "value": 87, "unit": "%"},
      {"measurement": "percent of control binding at 10 µM", "setting": "PRKCD; [3]", "value": 93, "unit": "%"},
      {"measurement": "percent of control binding at 10 µM", "setting": "CAMK2A; [3]", "value": 78, "unit": "%"}
    ]},
    {"smiles": "CNCc1ccc(-c2[nH]c3cc(F)cc4c3c2CCNC4=O)cc1", "note": "[Rucaparib]", "values": [
      {"measurement": "percent of control binding at 10 µM", "setting": "DMPK; [4]", "value": 100, "unit": "%"},
      {"measurement": "percent of control binding at 10 µM", "setting": "PIM1; [4]", "value": 2.8, "unit": "%"},
      {"measurement": "percent of control binding at 10 µM", "setting": "TNNI3K; [4]", "value": 92, "unit": "%"},
      {"measurement": "percent of control binding at 10 µM", "setting": "PHKG2; [4]", "value": 70, "unit": "%"},
      {"measurement": "percent of control binding at 10 µM", "setting": "PRKCD; [4]", "value": 83, "unit": "%"},
      {"measurement": "percent of control binding at 10 µM", "setting": "CAMK2A; [4]", "value": 79, "unit": "%"}
    ]}
  ]
}
